Data on 14 compounds can be found in patent US4582851A, “Anti-bacterial 1,4-aminoalkylamino-9H-thioxanthen-9-one derivatives, compositions, and method of use therefor” (Warner-Lambert Company, priority 1985, dated 1986).

Counter-ions that a name gives are not always drawn.

Assay [1] relates to P-388 lymphocytic leukemia. The following applies: cited from earlier work.
A further assay relates to P388. The following applies: cited from earlier work.
The subject of another assay is E. coli. As to the kind of experiment: Inhibitory zone diameter, agar disc assay, E. coli. The class given is cell-based, Escherichia coli. How it is done:
(§1) 1. Preparation of inocula
(§2) The bacterial and yeast isolates are maintained in agar slants or in liquid media, hereby designated as inoculum media. The cultures are transferred at regular intervals in such media. (See Table for the corresponding inoculum media of each culture.) The organisms are generally transferred on to agar slants or liquid inoculum media and incubated overnight (18-20 hours): 37° C. for the bacterial isolates and 28° C. for the fungal cultures.
(§3) The microbial cells from the overnight agar slants are then scraped off and suspended in saline solution (0.85% NaCl). The microbial concentrations are adjusted to a light transmittancy of 20-35%, Junior Coleman Spectrophotometer (555M). For the organisms that are maintained in liquid media, an aliquot of the culture suspension is simply diluted with saline to 20-35% light transmittancy.
(§4) The above microbial suspension serve as inocula for the assay plates. Thus, 0.16-10 ml (see Table for exact amount) are used to inoculate 100 ml of the molten-agar assay medium.
(§5) Stainless steel frames, 12.3×25.3 cm (ID) and glass plates, 15.3×31.7 cm are used to make the test trays. The frames are attached to the plates with tape at each end and the inner edges sealed with 2% agar. Twenty five ml of inoculated assay medium is spread evenly on each tray and allowed to solidify. The trays are covered, inverted, and refrigerated until used.
(§6) The compounds or samples to be tested are dissolved in suitable solvents, e.g., alcohols, dimethylsulfoxide, or N,N-dimethylformamide. The samples are generally dissolved so that the final concentration of the solvent is <10%.* The compounds are tested at different concentrations: 3,000; 1,000; 500; 100; and 10 mcg/ml. Paper discs (12.7 mm diameter) are placed on the agar trays with forceps, then 0.08 ml of the dissolved compound is pipetted onto each disc using a 0.2 ml pipette.
(§7) The disked agar trays are incubated overnight (18-20 hours) at 37° C. for the bacterial cultures and 28° C. for the yeasts. […] The diameter of the zone is measured in mm. […]

The next assay deals with B. Subtilis. As to the kind of experiment: Inhibitory zone diameter, agar disc assay, B. subtilis. The assay is classed as cell-based. The note with it: Bacillus subtilis; for zone of inhibition at 100 µg/mL: Conc. 100 (mg/ml). The method, then:
as §1, §2, §3, §4, §5, §6, §7

In the next assay the test system is S. Faeculic. As to the kind of experiment: Inhibitory zone diameter, agar disc assay, S. faecalis. The assay is classed as cell-based, Streptococcus faecalis. The note with it: Enterococcus faecalis. The method, then: as §1, §2, §3, §4, §5, §6, §7
The next assay deals with N. Catarrhali. As to the kind of experiment: Inhibitory zone diameter, agar disc assay, N. catarrhali. The class given is cell-based. The note with it: Conc. 100 (mg/ml). How it is done: as §1, §2, §3, §4, §5, §6, §7
Assay [2] has as its system lymphocytic leukemia P388. As to the kind of experiment: P388 in vivo lymphocytic leukemia test. Details: species or system male or female CD2 F1 mice. The following applies: for P388 in vivo T/C × 100: two single doses, four-day interval; for Number of animals surviving 30 days and considered "cured": six to seven animals per group. How it is done: The in vivo lymphocytic leukemia P388 test is carried out by the United States National Cancer Institute. The animals used are either male or female CD2 F1 mice. There are six to seven animals per test group. The tumor transplant is by intraperitoneal injection of dilute ascitic fluid containing cells of lymphocytic leukemia P388. The test compounds are administered intraperitoneally in two single doses with a four-day interval between doses at various dose levels following tumor inoculation. The animals are weighed and survivors are recorded on a regular basis for 30 days. A ratio of survival time for treated (T)/control (C) animals is calculated. The criterion for efficacy is T/C×100>125%. The positive control compound in this test is 1,4-dihydroxy-5,8-[bis[[2-[(2-hydroxyethyl)amino]-ethyl]]amino]-9,10-anthracenedione given at dosages ranging from 12.0 to 0.075 mg/kg. See Cancer Chemotherapy Reports, Part 3, 3, 1 (1972) for a comprehensive discussion of the protocol.

For a further assay, the system named is A. Viscolacti. As to the kind of experiment: Inhibitory zone diameter, agar disc assay, A. viscolacti. The assay is classed as cell-based. The following applies: read-out: Inhibitory Zone Diameter, A. viscolacti. How it is done:
as §1, §2, §3, §4, §5, §6, §7

Another assay has as its system L1210 cells. As to the kind of experiment: L1210 in vitro (murine leukemia cell growth). The class given is cell-based. The following applies: Mus musculus, L1210, 72 h; 3 days, 37° C., 5% CO2; read-out: L1210 in vitro ID50. The method, then:
A test protocol uses L1210 cells, a murine leukemia cell line, grown in RPMI 1640 supplemented with 5% fetal bovine serum and gentamicin (50 μg/ml). Drug dilutions are prepared in the appropriate solvent and 20 μl of each dilution are added to 24-well Linbro tissue culture plates, followed by the addition of 2.0 ml of cell suspension containing 3×10^4 cells per ml. Solvent and medium controls are included in each test. After incubation at 37° C. for three days in 5% CO2, the contents of each well are removed and the cells counted in a ZBI Coulter counter. Percent growth are calculated relative to the controls and the levels of drug activity are expressed as ID50 in moles per liter.

Assay [3] has as its system HCT-8 (human colon adenocarcinoma) cells. As to the kind of experiment: HCT-8 in vitro (human colon adenocarcinoma). The class given is cell-based. The following applies: 60-65 hrs at 37° C., read-out: HCT-8 in vitro ID50. The method, then: In addition to their usefulness as antibiotic and antifungal agents and as antileukemic agents, certain of the compounds of the invention display in vitro activity against solid tumors when tested by the following procedure.
HCT-8 (human colon adenocarcinoma) cells are trypsinized using Trypsin-EDTA. A single cell suspension is achieved by passing the cells through a 26 gauge needle with a 20 cc syringe. A cell suspension is prepared using RPMI 1640 growth medium (available from Gibco Laboratories)+10% fetal calf serum+50 μg/ml garamycin with a cell concentration of approximately 30,000 cells/ml. The cell suspension is dispensed in Linbro 24-well plates; 1 ml/well. The plates are incubated for approximately 48 hrs at 37° C. in a 5% CO2 atmosphere. At this time test compounds are added in the appropriate concentration. Five μl of the 200 μg/ml stock solution is added to each well in a primary test. Ten μl of the appropriate dilution is added to each well for a titration test. The plates are reincubated an additional 60-65 hrs at 37° C. in a 5% CO2 atmosphere. The test is read by lysing the cells using a mix of cationic surfactant, glacial acetic acid and sodium chloride. Two ml of the lysed cell suspension from each well is added to 8 ml of diluent. Each sample is read with a Coulter counter (ZBI model). The activity of each sample is measured as a percentage of the controls and the data is reported as ID50, that is the molar quantity of drug required to kill 50% of the tumor cells.

Another assay relates to tumor. The following applies: cited from earlier work.
Where [4] appears, read: 12.5 mg/kg i.p. (printed 125 for Example 1).

Regarding `Cc1ccc(NCCNCCO)c2c(=O)c3ccccc3sc12`, the “activity against the P-388 lymphocytic leukemia” value in [1] was “inactive”.

In the case of `Cc1ccc(NCCN(C)C)c2c(=O)c3ccccc3sc12`, the “activity against the P-388 lymphocytic leukemia” value in [1] was “inactive”.

`CCN(CC)CCNc1ccc(C)c2sc3ccc(O)cc3c(=O)c12` [7-hydroxy analog of lucanthone]: the “in vivo P388 activity” value in the assay with P388 was “shown to have in vivo P388 activity”.

As for `CN(C)CCNc1ccc(NCCNCCO)c2sc3ccccc3c(=O)c12.Cl.Cl.Cl` [Example 1, 1-[[2-(Dimethylamino)ethyl]amino]-4-[[2-[(2-hydroxyethyl)amino]ethyl]amino]-9H-thioxanthen-9-one trihydrochloride], the zone of inhibition at 3 g/mL in the assay on E. coli (Escherichia coli, read-out: Inhibitory Zone Diameter, E. coli) worked out at 17 mm. The zone of inhibition at 100 µg/mL was found to be 19 mm with B. Subtilis and 21 mm with N. Catarrhali. This compound also gave a zone of inhibition at 1600 µg/mL in the assay on S. Faeculic (Conc. 1600 (mg/ml)) of 19 mm. The “P388 in vivo T/C × 100” value in assay [2] (setting [4]) was 190%; in [2] (25 mg/kg i.p.), 236%. Further, the “Number of animals surviving 30 days and considered "cured"” value in assay [2] (25 mg/kg i.p.) worked out at 1. Further, the zone of inhibition at 100000 µg/mL in the assay with A. Viscolacti stood at 17 mm.

Take `CCN(CC)CCNc1ccc(N)c2sc3ccccc3c(=O)c12` [Example 1c]: the “activity against the P-388 lymphocytic leukemia” value in assay [1] is “inactive”.

With `CN(C)CCNc1ccc(NCCN)c2sc3ccccc3c(=O)c12` [Example 2, 4-[(2-Aminoethyl)amino]-1-[[2-(dimethylamino)ethyl]amino]-9H-thioxanthen-9-one, hydrochloride], the zone of inhibition at 1000 µg/mL in the assay on E. coli (Escherichia coli, Conc. 1000 (mg/ml)) was found to be 14 mm. Also, the zone of inhibition at 100 µg/mL with B. Subtilis amounted to 16 mm; with N. Catarrhali, 20 mm. Besides, the zone of inhibition at 500 µg/mL in the assay with S. Faeculic (Conc. 500 (mg/ml)) worked out at 14 mm. In addition, the “P388 in vivo T/C × 100” value stood at 187% in assay [2] (setting [4]) and 212% in assay [2] (25 mg/kg i.p.). Besides, the “Number of animals surviving 30 days and considered "cured"” value in [2] (25 mg/kg i.p.) came to 1. In the assay on A. Viscolacti, the zone of inhibition at 100000 µg/mL came to 23 mm.

On to `CN(C)CCNc1ccc(NCCCN)c2sc3ccccc3c(=O)c12.Cl.Cl.Cl` [Example 3, 4-[(3-Aminopropyl)amino]-1-[[2-(dimethylamino)ethyl]amino]-9H-thioxanthen-9-one, trihydrochloride], for which, in the assay on E. coli (concentration not given), the “Inhibitory Zone Diameter, E. coli” value is on record as 0 mm. Further, the zone of inhibition at 1000 µg/mL with B. Subtilis (Conc. 1000 (mg/ml)) is 16 mm. In the assay with S. Faeculic (Conc. 3000 (mg/ml)), this compound gave a zone of inhibition at 3000 µg/mL of 18 mm. Besides, the zone of inhibition at 100 µg/mL with N. Catarrhali was found to be 24 mm. Moreover, in assay [2] (25 mg/kg i.p.), the “P388 in vivo T/C × 100” value stood at 125%. The zone of inhibition at 100000 µg/mL with A. Viscolacti was 14 mm.

Regarding `CN(C)CCNc1ccc([N+](=O)[O-])c2sc3ccccc3c(=O)c12` [Example 4, 1-[[2-(dimethylamino)ethyl]amino]-4-nitro-9H-thioxanthen-9-one], the IC50 is 120 nM in the assay with L1210 cells and 270 nM in assay [3].

Turning to `CCN(CC)CCNc1ccc([N+](=O)[O-])c2sc3cc(OC)ccc3c(=O)c12` [Example 5 NH(CH2)2 NEt2 6-OMe], the IC50 in the assay on L1210 cells amounted to 1200 nM; in assay [3] it was 1100 nM. Further, the “P388 in vivo T/C × 100” value in assay [2] (100 mg/kg i.p.) is listed as 104%.

As to `CN(C)CCNc1ccc([N+](=O)[O-])c2sc3ccc(O)cc3c(=O)c12` [Example 5 NH(CH2)2 NMe2 7-OH, 1-[[2-(Dimethylamino)ethyl]amino]-7-hydroxy-4-nitro-9H-thioxanthen-9-one], the IC50 in the assay with L1210 cells stood at 6.5 nM.

As for `COc1ccc2sc3c([N+](=O)[O-])ccc(NCCN(C)C)c3c(=O)c2c1` [Example 5 NH(CH2)2 NMe2 7-OMe, 1-[[2-(Dimethylamino)ethyl]amino]-7-methoxy-4-nitro-9H-thioxanthen-9-one], the results for the IC50 (in the assay with L1210 cells; in [3]) were 250 nM and 1000 nM, respectively. In [2] (100 mg/kg i.p.), the “P388 in vivo T/C × 100” value stood at 178%.

Turning to `CN(C)CCCNc1ccc([N+](=O)[O-])c2sc3ccccc3c(=O)c12` [Example 5 NH(CH2)3 NMe2 H, 1-[[3-(dimethylamino)propyl]amino]-4-nitro-9H-thioxanthen-9-one], the IC50 in the assay on L1210 cells is 96 nM; in assay [3], 460 nM. Further, the “P388 in vivo T/C × 100” value in assay [2] (50 mg/kg i.p.) stood at 190%.

Take `CCN(CC)CCNc1ccc(CO)c2sc3ccccc3c(=O)c12` [hycanthone]: in the assay on tumor, the Experimental antitumor activity entry is reported as “Experimental antitumor activity has been reported”.

Take `CCN(CC)CCNc1ccc(C)c2sc3ccccc3c(=O)c12` [lucanthone]: the Experimental antitumor activity result with tumor is reported as “Experimental antitumor activity has been reported”.
